According to article PMC12491680 (Acta Pharmaceutica Sinica. B, 2025):

Experiments:
[1] = type: in vivo, human; conditions: victim serum, UPLC-Q Exactive MS/MS
[2] = Acute toxicity of pure Gelsemium alkaloids in mice; conditions: both, Kunming, mouse, in vivo, ip, 30 mg/kg
[3] = Detection of toxic alkaloids in mouse plasma after oral G. elegans extract; type: in vivo, Kunming mice; conditions: mice, oral G. elegans 95% ethanolic extract 200 mg/kg, blood 5 min after gavage
[4] = tested on: gelsenicine (1)-poisoned mice; assay: Antidote screening: survival of gelsenicine-poisoned mice; type: in vivo, Kunming mice; conditions: gelsenicine 0.22 mg/kg i.p.
[5] = cited from earlier work
[6] = tested on: CA1 pyramidal neurons; assay: Whole-cell recording in hippocampal CA1 pyramidal neurons; type: cell-based, C57BL/6J mice
[7] = tested on: mice; assay: Respiratory function by whole-body plethysmography; type: in vivo, C57BL/6J mice; conditions: 0.22 mg/kg intraperitoneal
[8] = tested on: VRG neurons; assay: Whole-cell recording of spontaneous action potentials in VRG neurons; type: cell-based, C57BL/6J mice
[9] = Quantitative analysis of gelsenicine in medulla; type: in vivo, C57BL/6J mice; conditions: 1 mg/kg intraperitoneal

C=C[C@@]12CN(C)[C@H]3C[C@]14C(=Nc1ccccc14)[C@@H]1C[C@@H]2[C@@H]3CO1 [Compound 32, koumine]
Detection in the clinical blood sample [1]: could also be detected
LD50 at 7 days [2]: > 30 mg/kg

C/C=C1\CN(C)[C@H]2C[C@@]3(C(=O)N(OC)c4ccccc43)[C@H]3C[C@@H]1[C@@H]2CO3 [Compound 17, humantenine]
Detection in the clinical blood sample [1]: clearly detected
Detection in plasma [3]: detected in the plasma
LD50 at 7 days [2]: 7.11 mg/kg

CCOC(=O)c1ncn2c1CN(C)C(=O)c1cc(F)ccc1-2 [flumazenil]
Survival rate of poisoned mice ([4]; antidote 3 mg/kg i.p.): 50%
Time to peak level ([5]; oral or intravenous, clinical and animal studies): ≤ 5 min

CCC1=N[C@H]2C[C@@]3(C(=O)N(OC)c4ccccc43)[C@H]3C[C@@H]1[C@@H]2CO3 [Compound 1, gelsenicine]
Concentration at which action potentials were suppressed ([6]; CA1 pyramidal neurons): ≥ 5 µmol/L
Effect on action potential firing ([6]; CA1 pyramidal neurons, 1 and 2 μmol/L): failed to show an inhibitory effect
Effect on miniature inhibitory synaptic currents (mIPSCs) ([6]; hippocampus CA1 region, 5 μmol/L): increased the amplitude
Detection in the clinical blood sample [1]: clearly detected
Time to severe respiratory distress after injection [7]: 5 to 10 min
Peak expiratory flow, peak inspiratory flow, frequency, tidal volume and minute ventilation ([7]; vs saline): significant reduction
Detection in plasma [3]: detected in the plasma
Decrease of action potential firing rate ([8]; VRG neurons, 1 μmol/L): about 60%
Decrease of action potential firing rate ([8]; VRG neurons, 2 μmol/L): about 70%
Effect on action potential firing ([8]; VRG neurons, 0.3 and 0.6 μmol/L): did not have an inhibitory effect
Effect on firing rate of picrotoxin-treated VRG neurons ([8]; gelsenicine 1 μmol/L in the presence of picrotoxin 50 μmol/L): did not affect the firing rate
Time of death after administration ([4]; mice, no antidote): around 15 min
Distribution to medulla ([9]; C57BL/6 mice, 5 and 10 min): quickly distributed to medulla at 5 min, and sustained until 10 min
Time of death ([9]; mice): around 10 min
LD50 at 7 days [2]: 0.14 mg/kg

CCC1(C)CC(=O)NC(=O)C1 [bemegride]
Survival rate of poisoned mice ([4]; antidote 6.5 mg/kg i.p.): 30%
Time to peak concentration and passage into the brain [5]: ≤ 30 min

CN1CCc2cc3c(cc2[C@H]1[C@@H]1OC(=O)c2c1ccc1c2OCO1)OCO3 [bicuculline, reference compound]
Effect on firing of VRG neurons inhibited by gelsenicine ([8]; bicuculline 20 μmol/L after gelsenicine 1 μmol/L): restoring the normal firing rate

C=C[C@]12CN(C)[C@@H]3[C@H]4CO[C@H](C[C@H]41)[C@]1(C(=O)Nc4ccccc41)[C@@H]32 [Compound 24, gelsemine]
Detection in the clinical blood sample [1]: could also be detected

O=C1C=C2C=C[C@@H]3C[C@@]2(O1)[C@H]1CCCCN31 [securinine]
Survival rate of poisoned mice ([4]; antidote 3 mg/kg i.p.): 50%
Time to peak concentration in plasma ([5]; intraperitoneal injection): ≤ 9 min
Time to peak concentration in the brain ([5]; intraperitoneal injection): ≤ 30 min

picrotoxin [reference compound]
Effect on VRG neuron activity (firing rate vs baseline) ([8]; picrotoxin 50 μmol/L alone): robust increase in activity
